Target: cytidine deaminase (Escherichia coli, UniProt P0ABF6)
Experiment: not given
Conditions: binding free energy from the literature; cited from earlier work

cytidine deaminase, sequence (P0ABF6 whole entry): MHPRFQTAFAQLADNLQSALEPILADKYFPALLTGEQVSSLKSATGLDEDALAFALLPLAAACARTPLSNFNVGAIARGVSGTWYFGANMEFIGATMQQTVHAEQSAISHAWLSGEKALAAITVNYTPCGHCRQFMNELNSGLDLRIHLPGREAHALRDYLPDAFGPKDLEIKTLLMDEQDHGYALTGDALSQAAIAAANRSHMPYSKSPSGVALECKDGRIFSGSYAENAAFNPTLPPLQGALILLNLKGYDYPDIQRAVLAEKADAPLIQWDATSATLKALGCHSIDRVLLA

Compound | ΔG/RT (experimental)
O=C1NC(O)C(F)=CN1[C@@H]1O[C@H](CO)[C@@H](O)[C@H]1O (some centres unmarked) [hydrated 5-fluoro-pyrimidine-2-one ribonucleoside] | −24
O=c1ccn([C@@H]2O[C@H](CO)[C@@H](O)[C@H]2O)c(=O)[nH]1 [uridine] | −6.0
Nc1ccn([C@@H]2O[C@H](CO)[C@@H](O)[C@H]2O)c(=O)n1 [cytidine] | −9.9
O=C1NCC=CN1[C@@H]1O[C@H](CO)[C@@H](O)[C@H]1O [3,4-dihydrozebularine] | −10
hydrated 5-bromo-pyrimidine-2-one ribonucleoside | −18
NC1=NC(=O)N([C@@H]2O[C@H](CO)[C@@H](O)[C@H]2O)CC1 [5,6-dihydrocytidine] | −9.1
hydrated pyrimidine-2-one ribonucleoside | −27
O=C1NC(O)C(Cl)=CN1[C@@H]1O[C@H](CO)[C@@H](O)[C@H]1O (some centres unmarked) [hydrated 5-chloro-pyrimidine-2-one ribonucleoside] | −19

Target: T1, adenosine deaminase (Homo sapiens, UniProt P00813)
T1 sequence (P00813 1-363): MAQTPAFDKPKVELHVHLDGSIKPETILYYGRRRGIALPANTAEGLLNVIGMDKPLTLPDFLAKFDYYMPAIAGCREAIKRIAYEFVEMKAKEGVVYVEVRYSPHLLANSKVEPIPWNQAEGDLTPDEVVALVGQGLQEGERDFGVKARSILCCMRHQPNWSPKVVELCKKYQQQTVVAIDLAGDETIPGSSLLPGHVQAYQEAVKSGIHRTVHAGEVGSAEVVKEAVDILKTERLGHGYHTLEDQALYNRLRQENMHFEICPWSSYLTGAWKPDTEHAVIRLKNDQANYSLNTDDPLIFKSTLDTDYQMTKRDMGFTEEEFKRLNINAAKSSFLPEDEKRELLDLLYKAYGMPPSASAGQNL
Experiment: Adenosine deaminase binding free energy, experimental
Conditions: not given

Compound | inhibitor quality in words
OC[C@H]1O[C@@H](n2cnc3c2N=CNC3)[C@H](O)[C@@H]1O [1,6-dihydropurine ribonucleoside] | not a good inhibitor

Same assay, conditions: binding free energy, dimensionless

Compound | ΔG/RT (experimental)
(R)-coformycin | −25
OC[C@H]1O[C@@H](n2cnc3c2NC=N[C@@H]3O)[C@H](O)[C@@H]1O [hydrated purine ribonucleoside] | −29
Nc1ncnc2c1ncn2[C@@H]1O[C@H](CO)[C@@H](O)[C@H]1O [adenosine] | −10
OC[C@H]1O[C@@H](n2cnc3c2N=CNC3)[C@H](O)[C@@H]1O [1,6-dihydropurine ribonucleoside] | −12

Test system: AMP nucleosidase
Experiment: not given
Conditions: binding free energy, dimensionless

Compound | ΔG/RT (experimental)
aminopyrazolo pyrimidine ribonucleotide | −12
Nc1ncnc2c1ccn2[C@@H]1O[C@H](CO)[C@@H](O)[C@H]1O [tubercidin] | −9.9
Nc1ncnc2c1ncn2[C@@H]1O[C@H](COP(=O)(O)O)[C@@H](O)[C@H]1O [AMP] | −9.0
Nc1ncnc2c([C@@H]3O[C@H](CO)[C@@H](O)[C@H]3O)[nH]nc12 [formycin] | −17

— patent US6895396B2, “Neural network methods to predict enzyme inhibitor or receptor ligand potency” (Albert Einstein College of Medicine of Yeshiva University, priority 1998, dated 2005)
